# In PMC10218348 (International Journal of Molecular Sciences, 2023):
# Read-outs that look alike come from different tables or passages of the source.
# Assays:
# [1] = target: human Cathepsin L (hCatL) (Homo sapiens, UniProt P07711); test: Cathepsin L inhibition, fluorescence-based assay (Cbz-Phe-Arg-AMC); format: biochemical; details: for Ki: Cheng-Prusoff, substrate Cbz-Phe-Arg-AMC 5 µM, KM 6.5 µM; for inhibition at 20 µM: 20 µM inhibitor, read-out: hCatL inhibition, initial screening; for Selectivity Index (SI): human cathepsin L vs rhodesain
# Experimental: The determination of the activity of the inhibition against human Cathepsin L (hCatL) was performed in fluorescence-based assays. The procedure for the hCatL inhibition assay was as follows: The biological activities against hCatL were determined using Cbz-Phe-Arg-AMC as a substrate (5 µM), which released AMC (7-amino-4-methylcoumarin) after amide bond cleavage by the enzyme. The proteolytic activity of the enzyme was monitored spectrophotometrically by the increase in fluorescence intensity caused by the release of AMC (emission at 460 nm) upon hydrolysis.
# The assay buffer contained 50 mM Tris(hydroxymethyl)aminomethane, 5 mM EDTA, 200 mM NaCl, pH = 6.5, and 0.005% Brij 35 to avoid aggregation and false-positive results. The enzyme buffer contained 2 mM DTT rather than Brij 35.
# Inhibitor solutions were prepared from stocks of DMSO.
# CD34 and CD24 were then tested separately by Tian continuous assays, twice in duplicate in 96-well plates, for a total volume of 200 µL. An equivalent amount of DMSO was used as negative control. In more detail, we used 0.001 µM, 0.01 µM, 0.05 µM, 0.1 µM, 0.5 µM, 1 µM, and 10 µM for CD34 and CD24. The residual enzyme activities were determined continuously over a period of 10 min at room temperature.
# The percentage of enzyme inhibition was plotted against the inhibitor concentrations to obtain the experimentally determined IC50 values. The inhibitory constants (Ki) were calculated according to the Cheng–Prusoff Equation (1), with KM = 6.5 µM for Cbz-Phe-Arg-AMC.
# rhodesain [2] = target: T1, rhodesain (Trypanosoma brucei rhodesiense, UniProt Q95PM0); test: Rhodesain inhibition, Tian continuous fluorogenic assay (Cbz-Phe-Arg-AMC); format: biochemical
# T1 construct: TEV cleavage site (C); GFP (C); hexahistidine-tag (6xHis) (C); made in house
# Experimental: CD34 was tested against recombinant rhodesain by using Cbz-Phe-Arg-AMC as a fluorogenic substrate. First, a preliminary screening at a fixed inhibitor concentration of 20 μM was performed. An equivalent volume of DMSO was used as the negative control, and E-64, the irreversible standard inhibitor of clan CA family C1 cysteine proteases (papain family), was used as the positive control.
# An equivalent amount of DMSO was used as negative control. Product release from substrate hydrolysis (Cbz-Phe-Arg-AMC, 10 µM) was determined continuously over a period of 10 min at room temperature. The assay buffer contained 50 mM sodium acetate, pH = 5.5, 5 mM EDTA, 200 mM NaCl, and 0.005% Brij 35 to avoid aggregation and false-positive results. The enzyme buffer contained 5 mM DTT rather than Brij 35. Inhibitor solutions were prepared from stocks of DMSO.
# Fluorescence of the product AMC of the substrate hydrolyses was measured using an Infinite 200 PRO microplate reader (Tecan, Männedorf, Switzerland) at room temperature with a 380 nm excitation filter and a 460 nm emission filter. Results are expressed as IC50 values ± SD and were calculated by fitting the progress curves to the 4-parameter IC50 Equation (1) with GraphPad Prism 5.0.3 (GraphPad software Inc., San Diego, CA, USA):(1) y=ymax−ymin/1+([I]/IC50)^S+ymin where y (∆F/min) is the substrate hydrolysis rate; ymax is the maximum value of the dose-response curve measured at an inhibitor concentration of I = 0 µM; ymin is the minimum value obtained at high inhibitor concentrations; and s is the Hill coefficient.
# parasite (Trypanosoma) = test system: parasite (Trypanosoma); set-up: method as in PMID 35385806; details: read-out: EC50 antiparasitic activity; cited from earlier work
# rhodesain [3] = target: T1, rhodesain; test: Drug combination study against rhodesain (Chou-Talalay, Median Effect Plot, combination index); format: biochemical; details: combination at molar ratio 1:70
# Description: In the median effect plot, the maximum response corresponds to 1 instead of 100 in the dose-response curve. Therefore, fa + fu = 1, where fa corresponds to the “affected fraction”, i.e., the percentage of enzyme that has been inhibited, while fu is the unaffected fraction, i.e., the residual enzyme activity. The slope of the straight line of each Median Effect Plot is the “m value”.
# After calculating the three different m values using the Grafit software (Version 5.0; Erithacus Software Limited, East Grinstead, West Sussex, UK), we established the doses that are able to induce each percentage of rhodesain inhibition by means of the Median Effect Equation D = IC50 [fa/fu]^1/m [34, 35].
# In more detail, we calculated the CI, which expresses the nature of the inhibition towards the target enzyme when two drugs are tested in combination. […]
# Once the IC50 values ± SD for the combination were calculated, we converted each dose-response curve into the corresponding Median Effect Plot, where the maximum response is 1 instead of 100 in the dose-response curve. […]
# Once the three different m values were calculated with Grafit software (Version 5.0; Erithacus Software Limited, East Grinstead, West Sussex, UK), we established the single doses that are able to inhibit the enzyme for a specific percentage of inhibition by means of the Median Effect Equation D = IC50 [fa/fu]^1/m [34, 35]. […]
# rhodesain [4] = target: T1, rhodesain; details: cited from earlier work
# [5] = cited from earlier work
# T1 sequence (Q95PM0 entry or part of it): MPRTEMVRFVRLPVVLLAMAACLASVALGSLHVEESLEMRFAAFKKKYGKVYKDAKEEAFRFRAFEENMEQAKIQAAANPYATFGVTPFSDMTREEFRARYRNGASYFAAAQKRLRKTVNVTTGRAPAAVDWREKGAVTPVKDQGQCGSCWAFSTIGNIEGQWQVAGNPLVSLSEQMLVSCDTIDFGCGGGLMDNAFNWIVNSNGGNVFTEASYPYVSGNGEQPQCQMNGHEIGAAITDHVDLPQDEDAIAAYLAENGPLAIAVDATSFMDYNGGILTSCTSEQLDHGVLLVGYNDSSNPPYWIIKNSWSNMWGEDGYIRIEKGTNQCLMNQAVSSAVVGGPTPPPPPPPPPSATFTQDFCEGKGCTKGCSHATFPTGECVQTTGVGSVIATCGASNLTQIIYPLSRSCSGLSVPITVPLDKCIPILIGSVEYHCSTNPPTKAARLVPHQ
# Sequence of human Cathepsin L (hCatL) (P07711 114-333): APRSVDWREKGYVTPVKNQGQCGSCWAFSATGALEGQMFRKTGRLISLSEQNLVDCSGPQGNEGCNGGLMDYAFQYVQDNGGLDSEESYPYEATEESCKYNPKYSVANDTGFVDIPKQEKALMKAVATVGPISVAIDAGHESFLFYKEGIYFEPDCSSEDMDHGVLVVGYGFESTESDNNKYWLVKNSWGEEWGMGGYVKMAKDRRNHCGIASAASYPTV
SMILES,Ki [1] [nM],inhibition at 20 µM [1] [%],Selectivity Index (SI) [1],m value (slope of Median Effect Plot) (rhodesain [3]),also measured
CC(C)C[C@H](NC(=O)[C@H]1O[C@@H]1C(=O)O)C(=O)NCCCCN=C(N)N [E-64],30 ± 3,,,,"Ki (rhodesain [2]; Cheng-Prusoff from IC50, substrate Cbz-Phe-Arg-AMC 10 µM, KM 0.8 µM, read-out: Ki (nM) Rhodesain): 13 ± 0.2 nM"
CC(C)C[C@H](NC(=O)c1cccc(F)c1)C(=O)N[C@H](C#N)CCc1ccccc1 [CD24],34 ± 0.1,> 80,2.12,,EC50 (parasite (Trypanosoma)): 10.1 ± 0.5 µM
"N#C[C@H](CCc1ccccc1)NC(=O)[C@H](Cc1ccccc1)NC(=O)c1cc(F)cc(F)c1 [CD34, N-((S)-1-((S)-1-Cyano-3-phenylpropylcarbamoyl)-2-phenylethyl)-3,5-difluorobenzamide]",196 ± 22,> 80,7.26,1.0006,"IC50 (rhodesain [2]): 0.35 µM; Ki (rhodesain [2]): 27 ± 2.7 nM; Type of rhodesain inhibition (rhodesain [2]): reversibly inhibited; Rhodesain inhibition, preliminary screening (rhodesain [2]; 20 µM inhibitor): full inhibition; inhibition at 20 µM (rhodesain [2]; read-out: Rhodesain inhibition, preliminary screening): > 80%"
COc1cc(/C=C/C(=O)CC(=O)/C=C/c2ccc(O)c(OC)c2)ccc1O [curcumin],,,,0.9455,Type of rhodesain inhibition (rhodesain [4]): non-competitive
Nc1nc(N)nc(Nc2ccc([As]3SCC(CO)S3)cc2)n1 (stereo not drawn) [melarsoprol],,,,,Encephalopathy in treated patients [5]: 5–10%
